PMC11923636, “Synthesis, Pharmacological Evaluation, and Molecular Modeling of Phthalimide Derivatives as Monoamine Oxidase and Cholinesterase Dual Inhibitors” (ACS Omega, 2025)
“And” between values parts separate entries of the source, which are not always exact repeats. Equal entries are not always repeated.

Tests used:
[1] = target: Electrophorus electricus AChE (Electrophorus electricus, UniProt O42275); assay: biochemical; assay type: biochemical; conditions: for IC50: mean ± SEM, n = 3, read-out: IC50 (μM) ± SEM eeAChE; for SI = IC50 of BChE/IC50 of AChE: selectivity index
Sequence of Electrophorus electricus AChE (O42275 24-633): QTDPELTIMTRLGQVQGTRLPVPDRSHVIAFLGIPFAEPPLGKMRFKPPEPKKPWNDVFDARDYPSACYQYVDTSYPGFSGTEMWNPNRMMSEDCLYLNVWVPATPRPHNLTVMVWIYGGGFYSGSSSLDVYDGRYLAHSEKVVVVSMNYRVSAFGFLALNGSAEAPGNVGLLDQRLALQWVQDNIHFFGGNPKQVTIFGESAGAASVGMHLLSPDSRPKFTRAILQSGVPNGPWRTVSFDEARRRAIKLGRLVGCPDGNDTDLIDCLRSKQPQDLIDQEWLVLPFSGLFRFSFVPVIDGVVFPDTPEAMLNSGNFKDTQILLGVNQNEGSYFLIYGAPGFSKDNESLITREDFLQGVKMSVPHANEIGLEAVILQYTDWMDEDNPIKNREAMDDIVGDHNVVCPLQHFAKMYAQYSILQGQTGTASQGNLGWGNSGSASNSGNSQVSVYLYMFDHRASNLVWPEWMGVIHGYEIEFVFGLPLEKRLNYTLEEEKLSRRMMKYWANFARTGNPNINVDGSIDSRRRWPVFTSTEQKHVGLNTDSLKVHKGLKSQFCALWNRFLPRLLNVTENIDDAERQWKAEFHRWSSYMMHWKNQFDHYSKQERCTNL
Method: (§1) The synthesized compounds were evaluated for their inhibition potential against cholinesterases (Electrophorus electricus AChE and equine serum lyophilized BChE).
(§2) The cholinesterase in vitro bioassay for the synthesized compounds was performed using already reported protocols.[29],[30] Ellman’s assay method was used to study the inhibition of Electrophorus electricus AChE and Equine Serum lyophilized BChE. Stock solutions of synthesized compounds were prepared in potassium phosphate buffer (pH 8.0). A sufficient amount of 5,5-dithio-bis-2-nitrobenzoic acid (DTNB, Ellman’s reagent), a stock solution of synthesized compounds, and 0.03 U/ml of the enzyme (AChE or BChE) were added to a 96-well plate and incubated at 30 °C for 10 min. Subsequently, 1 mM ATCI or BTCI was added, and the reaction mixture was incubated for 15 min. […] Sample concentration was plotted against inhibitory activity to obtain IC50 values.

human MAO-A = target: T1, human MAO-A (Homo sapiens, UniProt P21397); assay: Human MAO isoform inhibition assay (fluorometric), MAO-A; assay type: biochemical; conditions: mean ± SEM, n = 3; read-out: IC50 (μM) ± SEM hMAO-A
T1 sequence (P21397 1-527): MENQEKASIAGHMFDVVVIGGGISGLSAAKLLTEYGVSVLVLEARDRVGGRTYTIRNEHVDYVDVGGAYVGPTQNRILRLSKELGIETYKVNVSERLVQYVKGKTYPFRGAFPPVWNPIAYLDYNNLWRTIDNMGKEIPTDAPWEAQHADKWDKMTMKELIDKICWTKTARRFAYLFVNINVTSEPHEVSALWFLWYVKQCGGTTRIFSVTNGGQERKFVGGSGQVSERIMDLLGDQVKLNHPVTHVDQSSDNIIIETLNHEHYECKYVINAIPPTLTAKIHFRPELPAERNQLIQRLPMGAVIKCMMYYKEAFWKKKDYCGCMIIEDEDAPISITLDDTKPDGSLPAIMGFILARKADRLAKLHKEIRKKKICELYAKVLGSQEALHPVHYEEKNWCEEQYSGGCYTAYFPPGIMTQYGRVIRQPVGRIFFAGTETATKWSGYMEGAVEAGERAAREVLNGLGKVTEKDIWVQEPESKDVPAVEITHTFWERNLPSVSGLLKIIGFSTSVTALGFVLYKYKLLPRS
Method: (§3) The human MAO isoform assay was also carried out using a fluorescence-based assay protocol according to the reported literature.
(§4) Inhibitory activity of the synthesized compounds against MAO isoforms, specifically human MAO-A and MAO-B, was determined by using benzylamine and tyramine substrates in the dark (protected from light) in a 96-well plate by an already reported fluorometric method.[31],[32]

[2] = target: T2, equine serum lyophilized BChE (Equus caballus, UniProt P81908); assay: biochemical; conditions: mean ± SEM, n = 3; read-out: IC50 (μM) ± SEM eqBChE
T2 construct: Equine Serum lyophilized BChE; from tissue; host or cells: equine serum
T2 sequence (P81908 whole entry): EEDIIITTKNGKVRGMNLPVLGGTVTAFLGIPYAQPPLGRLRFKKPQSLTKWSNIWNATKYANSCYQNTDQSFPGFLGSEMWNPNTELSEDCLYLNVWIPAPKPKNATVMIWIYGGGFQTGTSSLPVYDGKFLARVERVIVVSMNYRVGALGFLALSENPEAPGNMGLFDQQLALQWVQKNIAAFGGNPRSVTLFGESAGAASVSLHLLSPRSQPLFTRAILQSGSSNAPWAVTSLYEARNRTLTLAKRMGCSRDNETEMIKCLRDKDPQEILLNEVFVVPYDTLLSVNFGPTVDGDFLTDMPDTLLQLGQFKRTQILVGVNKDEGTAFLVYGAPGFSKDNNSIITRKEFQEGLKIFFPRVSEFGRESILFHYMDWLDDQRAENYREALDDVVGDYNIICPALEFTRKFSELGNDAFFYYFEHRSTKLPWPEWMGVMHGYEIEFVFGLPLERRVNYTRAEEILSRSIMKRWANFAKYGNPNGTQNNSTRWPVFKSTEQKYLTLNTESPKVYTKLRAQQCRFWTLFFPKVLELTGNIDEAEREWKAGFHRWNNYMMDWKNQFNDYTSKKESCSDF
Method: as §1, §2

human MAO-B = target: T3, human MAO-B (Homo sapiens, UniProt P27338); assay: Human MAO isoform inhibition assay (fluorometric), MAO-B; assay type: biochemical; conditions: for IC50: mean ± SEM, n = 3, read-out: IC50 (μM) ± SEM hMAO-B; for SI (IC50 hMAO-A/IC50 hMAO-B): selectivity index
T3 sequence (P27338 1-520): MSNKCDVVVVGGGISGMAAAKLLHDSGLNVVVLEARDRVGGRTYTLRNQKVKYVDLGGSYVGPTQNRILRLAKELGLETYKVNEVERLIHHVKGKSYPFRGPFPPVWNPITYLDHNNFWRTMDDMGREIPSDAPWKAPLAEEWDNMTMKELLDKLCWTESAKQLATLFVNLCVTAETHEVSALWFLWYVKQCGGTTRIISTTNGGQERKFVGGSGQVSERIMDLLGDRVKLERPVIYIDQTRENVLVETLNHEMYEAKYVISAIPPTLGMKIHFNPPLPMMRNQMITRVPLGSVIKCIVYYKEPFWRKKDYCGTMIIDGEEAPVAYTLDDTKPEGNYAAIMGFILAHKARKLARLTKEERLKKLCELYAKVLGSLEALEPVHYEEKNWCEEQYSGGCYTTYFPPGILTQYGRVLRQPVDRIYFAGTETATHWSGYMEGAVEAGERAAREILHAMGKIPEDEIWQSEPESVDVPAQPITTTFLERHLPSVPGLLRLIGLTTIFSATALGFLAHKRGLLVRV
Method: as §3, §4

[3] = test system: SH-SY5Y neuroblastoma cells; assay type: cell-based; conditions: MTT
Method: To determine the biological safety of the synthesized compounds, we performed a cytotoxicity study using a human SH-SY5Y neuroblastoma cell line.
SH-SY5Y cells were cultured in 96-well plates (1 × 10^5 cells/well) in a medium containing fetal bovine serum (FBS), penicillin (100 U/ml), and streptomycin ([…]) at 37 °C and 5% CO2. […] Subsequently, synthesized compounds were added to cells, followed by the addition of 20 μL of MTT reagent (10 mg/mL) at the specified time. Plates were then incubated at 37 °C and 5% CO2, and purple color precipitate formation was observed by a microscope. Lastly, DMSO ([…]) was added to solubilize precipitates, and the plates were read at 570 nm to determine the cell viability. Results are expressed as percentage growth of cells, in which their viability is compared to control cells in the presence or absence of synthesized compounds and a standard. The following formula was utilized for the measurement of the % cell viability. [drawing 1]

mice brain MAO-B = target: T4, mice brain MAO-B (Mus musculus, UniProt Q8BW75); assay: Ex vivo MAO-B inhibition reversibility time course; assay type: in vivo, ICR mice; conditions: after 24 h, single ip dose
T4 construct: from tissue; host or cells: ICR mouse brain homogenate pellet
T4 sequence (Q8BW75 1-520): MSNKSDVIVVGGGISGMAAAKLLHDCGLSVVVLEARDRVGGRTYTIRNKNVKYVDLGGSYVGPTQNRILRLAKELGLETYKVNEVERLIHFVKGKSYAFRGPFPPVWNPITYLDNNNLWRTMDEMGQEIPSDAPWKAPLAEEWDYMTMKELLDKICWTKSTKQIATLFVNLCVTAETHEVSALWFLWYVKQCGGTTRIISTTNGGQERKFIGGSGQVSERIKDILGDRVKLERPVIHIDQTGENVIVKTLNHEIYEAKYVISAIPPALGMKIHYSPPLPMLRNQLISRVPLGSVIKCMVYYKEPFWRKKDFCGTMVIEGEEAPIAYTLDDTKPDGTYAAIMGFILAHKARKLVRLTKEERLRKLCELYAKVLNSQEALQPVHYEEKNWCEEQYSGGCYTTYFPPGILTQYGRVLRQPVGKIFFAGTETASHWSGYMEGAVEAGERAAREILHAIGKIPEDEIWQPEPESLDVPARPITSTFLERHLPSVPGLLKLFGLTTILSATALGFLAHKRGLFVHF
Method: After the experiments, the animals were euthanized following Animal Euthanasia (AVMA Guidelines) guidelines to ensure humane treatment. Five groups of ICR mice were administered test samples by intraperitoneal injection, and the intact brains were excised and were then frozen for almost 1 h (−20 °C). Brain tissue ([…]) was suspended in sucrose (0.3 M) using a homogenizer (Ultra-Turrax T8; at 60 Hz for almost 70 s) and then subjected to centrifugation for 10 min at 1500 rpm (4 °C). 200 μL of supernatant was collected and centrifuged for 20 min at 15,000 rpm and 4 °C. Subsequently, the formed pellet was resuspended in KHPO4 solution (pH 7.2, 600 μL) and then subjected to 20 min centrifugation at 15,000 rpm and 4 °C. This process was repeated three times. Enzyme activity was determined using an Assay Kit (monoamine oxidase). […] The mice were then sacrificed at intervals ranging from 0.5 to 48 h.[34]

in vitro = conditions: for Papp at 20 h: PAMPA, pH 7.4; for prediction of CNS penetration: class from PAMPA-BBB Pe
Method: A fundamental requirement for the effectiveness of anti-AD drugs is their capability to traverse the BBB (blood–brain barrier). […]
Briefly, synthesized compounds were first dissolved in DMSO (10 mM) that was further diluted by the addition of phosphate buffer ([…]) having a pH of 7.4. PBL dissolved in dodecane was used for coating the membranes of the donor plates. Then, the test compound (0.2 mL) was added to the plate, followed by PBS (0.2 mL; pH = 7.4) to the acceptor plate, which was further placed under the donor plate in order to form a “sandwich”. […] A UV plate reader was employed for the measurements of the drug concentration in donor, acceptor, and reference wells. The permeability (Pe) of the compounds was measured by using the following formula. [drawing 2]

SMILES	IC50 [1]	SI = IC50 of BChE/IC50 of AChE [1]	IC50 (human MAO-A)	IC50 [2]	IC50 (human MAO-B)	SI (IC50 hMAO-A/IC50 hMAO-B) (human MAO-B)	cytotoxicity on SH-SY5Y cells ([3]; 10, 20, 30, and 50 μM)	neurotoxicity on SH-SY5Y cells ([3]; higher concentrations (100 μM))	activity of MAO-B recovered (mice brain MAO-B)	Papp at 20 h (in vitro)	prediction of CNS penetration (in vitro)
Cc1ccc2cc(-c3ccc(CN4C(=O)c5ccccc5C4=O)cc3)ccc2n1 [3m]	0.89 ± 0.1 µM	35	23.5 ± 1.12 µM	31.1 ± 0.79 µM	0.15 ± 0.01 µM	156	–	–	–	–	–
Cc1cc(C)c(-c2ccc(CN3C(=O)c4ccccc4C3=O)cc2)c(C)c1 [3i]	0.88 ± 0.05 µM	56	50.9 ± 1.42 µM	49.2 ± 1.11 µM	0.71 ± 0.04 µM	71	–	–	–	–	–
O=C1c2ccccc2C(=O)N1Cc1ccc(-c2cccc(C(F)(F)F)c2)cc1 [3f]	4.48 ± 0.11 µM	4	11.3 ± 0.2 µM	17 ± 1.04 µM	0.09 µM and 0.091 µM	124	No cytotoxicity	negligible neurotoxicity	~80%	18.3 ± 1.27 ×10⁻⁶ cm/s	CNS+ (“CNS+” (prediction of high BBB permeation); Pe (10^–6 cm/s) > 4.39)
N#CCc1ccc(-c2ccc(CN3C(=O)c4ccccc4C3=O)cc2)cc1 [3g]	13.43 ± 0.08 µM	7	5.44 ± 0.16 µM	99.1 ± 1.21 µM	0.78 ± 0.04 µM	7	–	–	–	–	–
Cc1ccc(-c2ccc(CN3C(=O)c4ccccc4C3=O)cc2)cc1 [3a]	3.16 ± 0.09 µM	15	19.3 ± 1.28 µM	49.1 ± 1.36 µM	1.04 ± 0.03 µM	18	–	–	–	–	–
O=C1c2ccccc2C(=O)N1Cc1ccc(-c2cccc3ccccc23)cc1 [3j]	0.61 ± 0.03 µM	31	6.98 ± 0.2 µM	18.9 ± 1.08 µM	0.13 ± 0.01 µM	53	–	–	–	–	–
O=C1c2ccccc2C(=O)N1Cc1ccc(-c2cccs2)cc1 [3l]	0.91 ± 0.02 µM	61	8.29 ± 0.33 µM	55.3 ± 1.31 µM	0.14 ± 0.01 µM	59	–	–	–	–	–
O=C1c2ccccc2C(=O)N1Cc1ccc(-c2ccc3c(c2)OCO3)cc1 [3k]	21.1 ± 0.47 µM	3.8 and 4	40.4 ± 1.31 µM	80.7 ± 1.54 µM	0.66 ± 0.03 µM	61	–	–	–	–	–
Cc1cc(C)cc(-c2ccc(CN3C(=O)c4ccccc4C3=O)cc2)c1 [3h]	0.73 ± 0.04 µM	40	75.1 ± 1.25 µM	29.6 ± 1.16 µM	0.64 ± 0.02 µM	117	–	–	–	–	–
N#Cc1ccc(-c2ccc(CN3C(=O)c4ccccc4C3=O)cc2)cc1 [3d]	9.21 ± 0.14 µM	4	28.8 ± 1.44 µM	33.5 ± 1.09 µM	0.64 ± 0.03 µM	45	–	–	–	–	–
O=C1c2ccccc2C(=O)N1Cc1ccc(-c2ccc([N+](=O)[O-])cc2)cc1 [3c]	0.94 ± 0.12 µM	52	19.4 ± 1.21 µM	49.1 ± 1.39 µM	0.24 ± 0.01 µM	80	–	–	–	–	–
C[C@H](NCc1ccc(OCc2cccc(F)c2)cc1)C(N)=O [safinamide, reference compound]	–	–	–	–	–	–	–	–	–	7.56 ± 0.02 ×10⁻⁶ cm/s	CNS+ (“CNS+” (prediction of high BBB permeation); Pe (10^–6 cm/s) > 4.39)
